According to publication PMC10831071, “Reaction hijacking inhibition of Plasmodium falciparum asparagine tRNA synthetase” (Nature Communications, 2024):
Converted amounts (≈) assume the structure as drawn. “And” between values parts separate entries of the source, which are not always exact repeats. Identical values can stand only once.

Key:
[1] = test system: PfAsnRS; assay: LC-MS of Asn-OSM-S-106 adduct generated by recombinant PfAsnRS; assay type: biochemical, Plasmodium falciparum; settings: 1 μM PfAsnRS, 10 μM OSM-S-106, 1 h, 37 °C; individual experiments
Description: (§1) The reaction buffer consists of 100 mM HEPES pH 7.5 (KOH), 160 mM KCl, 3.5 mM MgCl2, 1 mM DTT. The mixture was incubated at 37 °C for 1 h. After that, an equal volume of 8 M urea was added to the mixture. Finally, trifluoroacetic acid was added to a final concentration of 1%. The sample was centrifuged at 15,000 × g for 10 min and the supernatant was used for LCMS analysis. […] Quantification of the conjugates was done using Skyline (version 21.1.0.278).
(§2) Samples were analyzed by reversed-phase ultra-high-performance liquid chromatography (UHPLC) coupled to tandem mass spectrometry (MS/MS) employing a Vanquish UHPLC linked to an Orbitrap Fusion Lumos mass spectrometer (Thermo Fisher Scientific, San Jose, CA, USA) operated in positive ion mode. Solvent A was 0.1% formic acid/10 mM ammonium acetate in water and solvent B was 0.1% formic acid/10 mM ammonium acetate in acetonitrile. […] Finally, the percentage of solvent B was decreased to 0% in 0.1 min and maintained for 3.9 min.
(§3) MS experiments were performed using a Heated Electrospray Ionization (HESI) source. The spray voltage, flow rate of sheath, auxiliary and sweep gases were 3.5 kV, 20, 6, and 1 ‘arbitrary’ unit(s), respectively. The ion transfer tube and vaporizer temperatures were maintained at 350 °C and 400 °C, respectively, and the S-Lens RF level was set at 50%. […]

[2] = test system: control YFP line (TetR/DOZI module); assay: OSM-S-106 susceptibility assay, control YFP line; assay type: cell-based, Plasmodium falciparum; settings: YFP-aptamer control line
Description: Synchronous ring-stage PfAsnRS, PfAlaRS, PfGlyRS, PfNT4, PfGDH3, and PfCA cKD parasites, as well as a control line expressing a fluorescent protein under the control of the TetR/DOZI module, were maintained in 0.5 µM aTc to achieve wild-type protein levels, and 0.001 or 0.0015 µM aTc for knockdown of PfAsnRS, PfAlaRS and PfGlyRS, and no aTc for knockdown of PfNT4, PfGDH3 and PfCA. DMSO- and dihydroartemisinin-treatment (0.5 µM) served as reference controls.

[3] = test system: P. falciparum Dd2 parent; assay: 72 h sensitivity of wildtype Dd2 parent line; assay type: cell-based, Plasmodium falciparum; settings: for growth after 72 h exposure, normalised to no drug: replicates
[4] = molecular target: T1, HsAsnRS (Homo sapiens, UniProt O43776); assay: LC-MS of Asn-OSM-S-106 adduct generated by recombinant HsAsnRS; assay type: biochemical
T1 construct: HsAsnRS (residues M1–P548) and CDHsAsnRS (residues A98–P548); His6 (N, cleaved yes); made in house; host or cells: E. coli BL21 (DE3), pET11a
T1 sequence (O43776 1-548): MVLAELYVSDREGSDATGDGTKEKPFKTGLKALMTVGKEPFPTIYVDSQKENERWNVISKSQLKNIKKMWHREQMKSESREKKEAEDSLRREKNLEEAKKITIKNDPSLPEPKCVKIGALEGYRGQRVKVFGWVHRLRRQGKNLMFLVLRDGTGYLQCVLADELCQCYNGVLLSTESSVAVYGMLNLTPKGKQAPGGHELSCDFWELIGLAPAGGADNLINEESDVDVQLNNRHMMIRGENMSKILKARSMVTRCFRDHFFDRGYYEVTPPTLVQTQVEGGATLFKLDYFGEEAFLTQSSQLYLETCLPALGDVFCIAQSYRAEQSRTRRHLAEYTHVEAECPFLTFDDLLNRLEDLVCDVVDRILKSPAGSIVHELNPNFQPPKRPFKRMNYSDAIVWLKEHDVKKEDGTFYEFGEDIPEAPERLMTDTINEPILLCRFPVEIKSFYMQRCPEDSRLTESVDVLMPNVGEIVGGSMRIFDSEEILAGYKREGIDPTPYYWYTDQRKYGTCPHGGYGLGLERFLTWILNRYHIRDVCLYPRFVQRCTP
Description: as §1, §2, §3

[5] = Solubility; assay type: physicochemical
[6] = test system: protein translation in P. falciparum trophozoites (Cam3.II-rev); assay: Protein translation assay (OPP incorporation); assay type: cell-based, Plasmodium falciparum; settings: for Translation: 6 h exposure, individual experiments, 0 nM = 100
Description: O-propargyl-puromycin (OPP) (Abcam) was added to the culture and incubated for a further 2 h. Parasites were washed three times in 1 × PBS (Gibco™) and fixed with 4% formaldehyde (Polysciences) and 0.02% glutaraldehyde (Sigma) in 1 × PBS for 20 min at room temperature (RT). Cells were washed two times with buffer A (3% human serum in 1 × PBS). Pellets were permeabilized in buffer A containing 0.05% Triton® X-100 and washed two times with buffer A. Fixed-permeabilized cells were subjected to copper-catalyzed azide–alkyne cycloaddition (CuAAC) at 37 °C for 1 h in the presence of 0.1 mM CuSO4, 0.5 mM THPTA, 5 mM sodium ascorbate, and 0.1 μM Alexa Fluor 488 azide in buffer A. Pellets were washed four times in buffer A and resuspended in buffer A containing 25 μg/ml propidium iodide (Invitrogen™). Cells were interrogated by flow cytometry (FACS Canto II; BD Biosciences, San Jose, CA) using FITC and Cy™5.5 channels.

Q: For `Nc1ncnc2cc(-c3cccc(S(N)(=O)=O)c3)sc12` [OSM-S-106], which “MS peak area (Asn-OSM-S-106 adduct)” value [1] is on record?
A: 50050244 and 46285516 and 50264000 and 46572204

Q: And the Growth ([2]; 3.125 nM OSM-S-106, 500 nM aTc)?
A: 98.4708 and 116.919 and 104.321

Q: And the Growth ([2]; 3.125 nM OSM-S-106, no aTc)?
A: 98.4734 and 92.161 and 100.93

Q: What about the Growth ([2]; 6.25 nM OSM-S-106, 500 nM aTc) of the same molecule?
A: 96.7408 and 93.8415 and 101.366

Q: And the Growth ([2]; 6.25 nM OSM-S-106, no aTc)?
A: 92.1288 and 90.7869 and 100.211

Q: What about the Growth ([2]; 12.5 nM OSM-S-106, 500 nM aTc) of the same molecule?
A: 103.105 and 71.6867 and 103.065

Q: What about the Growth ([2]; 12.5 nM OSM-S-106, no aTc) of the same molecule?
A: 102.145 and 82.3472 and 97.2955

Q: What about the Growth ([2]; 25 nM OSM-S-106, 500 nM aTc) of the same molecule?
A: 96.4937 and 50.4813 and 93.5

Q: And the Growth ([2]; 25 nM OSM-S-106, no aTc)?
A: 103.53 and 55.9318 and 95.9432

Q: And the “growth after 72 h exposure, normalised to no drug” value (“growth … normalised to no drug” for short) ([3]; Dd2 parent, 3.90625 nM)?
A: 105.433 and 105.733 and 104.567 and 104.167 and 104.633

Q: And the “growth … normalised to no drug” value ([3]; Dd2 parent, 7.8125 nM)?
A: 105.2 and 103.8 and 105.633 and 102.933 and 104.1

Q: What about the “growth … normalised to no drug” value ([3]; Dd2 parent, 31.25 nM) of the same molecule?
A: 88.9667 and 98.9 and 97.0667 and 93.5333 and 97.5667

Q: And the “growth … normalised to no drug” value ([3]; Dd2 parent, 62.5 nM)?
A: 45.3 and 68.4 and 68.8333 and 58.4667 and 65.5

Q: And the “growth … normalised to no drug” value ([3]; Dd2 parent, 125 nM)?
A: 7.633 and 16.6667 and 15.5333 and 13.8333 and 17.5667

Q: And the “growth … normalised to no drug” value ([3]; Dd2 parent, 250 nM)?
A: 0.2 and 1.267 and 0.5667 and -1.767 and 2.067

Q: And the “growth … normalised to no drug” value ([3]; Dd2 parent, 500 nM)?
A: -1.167 and 0 and -0.8 and -3.167 and 0.4

Q: What about the “growth … normalised to no drug” value ([3]; Dd2 parent, 1000 nM) of the same molecule?
A: -1.867 and -0.3333 and -1.3 and -3.5 and -0.4667

Q: And the “growth … normalised to no drug” value ([3]; Dd2 parent, 2000 nM)?
A: -0.8333 and -0.3667 and -0.8667 and -2.833 and 0.5

Q: What about the IC50 ([3]; Dd2 parent, individual experiments) of the same molecule?
A: 75.6 nM and 76.2 nM and 70 nM and 74.2 nM

Q: And the IC50 ([3]; Plasmodium falciparum, DD2, Dd2 parent, individual experiments)?
A: 57 nM

Q: What about the IC50 ([3]; Plasmodium falciparum, DD2, Dd2 parent, mean ± S.D., five experiments) of the same molecule?
A: 71 nM

Q: What about the “MS peak area (Asn-OSM-S-106 adduct)” value ([4]; 1 μM HsAsnRS, 10 μM OSM-S-106, 1 h, 37 °C, individual experiments) of the same molecule?
A: 3564405 and 3396334 and 2555457 and 1397007

Q: What about the “Asn-OSM-S-106 signal intensity with HsAsnRS, lower than with PfAsnRS” value ([4]; 10 μM OSM-S-106, ATP, Asn, E. coli tRNA) of the same molecule?
A: 18 fold

Q: And the solubility ([5]; pH 2, simulated gastric fluid)?
A: 50 to 100 µg/mL (≈ 163 to 326 µM)

Q: What about the solubility ([5]; pH 6.5, aqueous buffer) of the same molecule?
A: 12.5 to 25 µg/mL (≈ 40.8 to 81.6 µM)

Q: What about the Translation ([6]; 78.1 nM) of the same molecule?
A: 88.2194 and 68.5604 and 78.7165

Q: What about the Translation ([6]; 156.3 nM) of the same molecule?
A: 70.9569 and 76.7178 and 73.7965

Q: And the Translation ([6]; 312.5 nM)?
A: 55.5714 and 55.4781 and 55.6229

Q: What about the Translation ([6]; 625 nM) of the same molecule?
A: 47.9476 and 51.4282 and 41.085

Q: And the Translation ([6]; 1250 nM)?
A: 31.8914 and 46.8967 and 33.6793

Q: What about the Translation ([6]; 2500 nM) of the same molecule?
A: 20.1284 and 25.4073 and 16.4444

Q: What about the Translation ([6]; 5000 nM) of the same molecule?
A: 10.3606 and 16.5158 and 20.3119

Q: What about the Translation ([6]; 10000 nM) of the same molecule?
A: 7.683 and 13.3898 and 13.8481

Q: What about the Translation ([6]; 20000 nM) of the same molecule?
A: 7.414 and 4.917 and 2.903

Q: And the Translation ([6]; 40000 nM)?
A: 7.804 and 8.474 and 8.853

Q: What about the IC50 ([6]; Plasmodium falciparum, read-out: IC50 (Translation)) of the same molecule?
A: 510 nM
